Results as given in paper PMC12040169 (PLOS Biology, 2025).

Assay: in vitro
Settings: human, hela cells, % viability

Row | Structure (SMILES) | viability at 28.5 h, 10 µM [%]
1 | O=C(O)c1nccnc1-c1ccc(Cn2ccc3ccccc32)cc1 [CBK050811] | 100
2 | CC(C(=O)N1CCCCC1)n1sc2ccccc2c1=O (stereo not drawn) [CBK116322] | 98.4
3 | CSCC[C@@H]1NC(=O)N(c2ccc(CN3CCOCC3)cc2)C1=O [CBK287954] | 83.2
4 | Cc1cc(NC(=O)N2CCN(CCNC(=O)C3CCCC3)CC2)no1 [CBK305064] | 100
5 | O=C1CCN([C@H]2C[C@@H](O)[C@@H](CO)O2)C(=O)N1 [CBK201288] | 93.8
6 | Cc1nc2c(c(=O)[nH]1)CCN(C(=O)c1cc3c(s1)CCC3)C2 [CBK283751] | 105
7 | O=C(COc1ccccc1)NCC1(c2ccccc2)CCOCC1 [CBK067407] | 103
8 | CC(NC(=O)C1(Cn2ccnc2)CC1)c1ccccc1-n1cccn1 (stereo not drawn) [CBK307006] | 94.3
9 | CC(=O)c1ccccc1-c1cnc(N(C)S(C)(=O)=O)c(C(=O)NCCc2ccccc2)c1 [CBK076516] | 93.9
10 | CN1CCC(Oc2nc3ccccc3nc2C(F)(F)F)CC1 [CBK113299] | 90.1
11 | CCCN1CCN(C(=O)c2ccc(=O)n(C)c2)C(Cc2ccccc2-c2ccccc2)C1=O (stereo not drawn) [CBK285836] | 108
12 | COc1cc2c(cc1OC)C1c3ccccc3N(Cc3ccccc3)C(=O)N1CC2 (stereo not drawn) [CBK286192] | 86.8
13 | COc1cccc(/C=N/NC(=O)CSc2nnc(C)n2-c2ccccc2)c1O [CBK262758] | 80.7
14 | c1ccc(-c2cnc(C3CCCCC3)o2)cc1 [CBK008192] | 83.1
15 | CC(=O)c1ccc(NC(=O)c2cccc(S(=O)(=O)N3CCCCC3)c2)cc1 [CBK263246] | 96.4
16 | COC(=O)Nc1ncc(CN2CCc3ccccc3C2)s1 [CBK268376] | 97.5
17 | O=C(Cn1ccc(=O)[nH]c1=O)NCC1(Sc2ccccc2)CC1 [CBK306242] | 110
18 | CN(C)c1cccc(Nc2ccc(-c3ccco3)cn2)c1 [CBK036885] | 96.8
19 | CC1(C)NC(=O)N(CC(O)COc2ccc([N+](=O)[O-])cc2)C1=O (stereo not drawn) [CBK262840] | 98.8
20 | O=c1ccc2cc(S(=O)(=O)Nc3ncc(Br)c4cccnc34)ccc2o1 [CBK073887] | 94
21 | CC(C)S(=O)(=O)n1ccn(-c2cccc(C(F)(F)F)c2)c1=O [CBK106577] | 88
22 | COc1ccc(C(NC(C)=O)c2nccc3cc(OC)c(OC)cc23)cc1OC (stereo not drawn) [CBK270219] | 94.6
23 | Cc1nnc2n1-c1ccccc1SC(c1ccccc1)C2 (stereo not drawn) [CBK016040] | 92.9

Row | Structure (SMILES) | viability at 28.5 h, 10 µM [%]
24 | CC(C)c1ccc(S(=O)(=O)Nc2cccc(SC(F)(F)F)c2)cc1 [CBK044581] | 99.5
25 | COC(=O)c1ccc(F)c(NC(=O)C2CCCC2)c1 [CBK296640] | 85.5
26 | O=C(Nc1ccc(Br)cc1C(=O)O)c1cccc(C(=O)Nc2ccc(Br)cc2C(=O)O)c1 [CBK261395] | 90.5
27 | Cc1n[nH]c(C)c1CCC(=O)N/N=C\c1ccc(Cl)c(Cl)c1 [CBK263395] | 97.4
28 | O=C(Cn1nnc2ccccc2c1=O)N1CCCC(C(F)(F)F)C1 (stereo not drawn) [CBK305900] | 80.5
29 | COc1ccccc1C1OC(=O)C[C@@H]1C(=O)Nc1cc(C(C)(C)C)on1 (stereo partly drawn) [CBK021439] | 110
30 | COc1ccccc1N1CCN(CCCCNC(=O)c2ccc(Cl)cc2)CC1 [CBK074835] | 93
31 | Cc1ccc(CC(=O)N2CCC(Cc3ccccc3-c3ccccc3)(C(N)=O)CC2)cc1 [CBK285740] | 110
32 | COc1cc([N+](=O)[O-])ccc1NC(=O)NCc1ccc(C(=O)O)cc1 [CBK267092] | 87.1
33 | O=C(NC1CCS(=O)(=O)C1)c1c[nH]c2ccccc2c1=O (stereo not drawn) [CBK304295] | 88.7
34 | NC1CCN(C(=O)Cn2c3ccccc3c(=O)c3ccccc32)C1 (stereo not drawn) [CBK304300C] | 94.3
35 | CCn1nnnc1NCc1ccc(OCc2ccc(F)cc2Cl)c(OC)c1 [CBK268224] | 112
36 | Cc1cnn(C)c1CN1CCC(C(N)=O)(N2CCCCC2)CC1 [CBK304400] | 89.4
37 | Clc1cc(N[C@@H]2CCN(Cc3ccccc3)C2)n2nccc2n1 [CBK037069] | 92.3
38 | CCC(NC1CCc2nc(C)cn2C1)c1ccccc1O (stereo not drawn) [CBK306012] | 85.8
39 | O=C(NCCc1noc(CO)n1)N(Cc1ccsc1)C1CCCCC1 [CBK307273] | 98.5
40 | CC(=O)Nc1ccc(-c2cncc(NC3CCC(O)CC3)n2)cc1 (stereo not drawn) [CBK065886] | 93.9
41 | Cc1cc2ccccc2n2c(=O)n(CC(=O)N3CCCCCC3)nc12 [CBK283883] | 82.3
42 | O=C1CN(C(=O)Nc2ccc3[nH]ccc3c2)CCN1 [CBK155858] | 87
43 | O=C(Cc1ccc([N+](=O)[O-])cc1)Nc1ccc(O)cc1C(=O)O [CBK265977] | 97.6
44 | CCC(=O)Nc1nc(-c2ccc(OC)cc2)cs1 [CBK070494] | 85.7
45 | O=C1NN=C(Cc2ccccc2)C1c1ccccc1 (stereo not drawn) [CBK067757] | 95.6
46 | Cc1cc(NS(=O)(=O)c2cc(OCC(N)=O)c(C)cc2Cl)no1 [CBK266456] | 103

Row | Structure (SMILES) | viability at 28.5 h, 10 µM [%]
47 | O=C(c1cccs1)N1C[C@H](c2ccc(F)cc2)[C@H]2CN(Cc3ccccc3)CC[C@H]21 [CBK285544] | 91.8
48 | CC(C)N(C(=O)N1CCC(c2cccnc2)CC1)C(C)C [CBK283850] | 97.6
49 | Oc1cccc(-c2nccnc2NCc2cccc(C(F)(F)F)c2)c1 [CBK037014] | 86.9
50 | Cc1ccc(N(Cc2ccco2)C(=O)c2cccc(S(=O)(=O)N3CCOCC3)c2)cc1 [CBK265857] | 96.4
51 | CS(=O)(=O)c1ccc(CNc2nccnc2-c2ccccc2F)cc1 [CBK036836] | 96.4
52 | COc1ccc(OCC(=O)Nc2ccccc2N2CCN(S(C)(=O)=O)CC2)cc1 [CBK269177] | 89.9
53 | CC12CCCN1CCCN2C(=O)c1c[nH]c2ccccc12 (stereo not drawn) [CBK169228] | 87.2
54 | COc1cccc(OC)c1OCCNC1CCc2cc(Cl)ccc2C1 (stereo not drawn) [CBK013079C] | 88.9
55 | COc1cc(CN2CCC(N3CCCCCC3)CC2)ccc1OCc1ccccc1 [CBK264709G] | 90.6
56 | COCC(=O)NCc1cc2n(n1)CCN(Cc1cccs1)C2 [CBK307085] | 106
57 | O=C(Nc1ccc(F)cc1)c1[nH]c2ccccc2c1NS(=O)(=O)c1ccc(C(F)(F)F)cc1[N+](=O)[O-] [CBK050090] | 90.1
58 | FC(F)(F)c1ccc(OC2CCNCC2)nc1 [CBK113287] | 83
59 | CC(C)(C)OC(=O)N1CCC(CNS(C)(=O)=O)CC1 [CBK003925] | 78
60 | Cc1cc(C)c2c(N)nc(N)nc2n1 [CBK025968] | 105
61 | Cc1sc2[nH]c(CCC(=O)N3CCCC(C)CC3)nc(=O)c2c1C (stereo not drawn) [CBK305807] | 103
62 | COc1cc(C2NC(C(=O)O)Cc3c2[nH]c2ccccc32)cc(OC)c1OC (stereo not drawn) [CBK219193] | 101
63 | Cc1ccc(-c2[nH]ncc2C(=O)c2ccccc2C)c(O)c1 [CBK287929] | 102
64 | Cn1c(=O)n(C)c2cc(CNCc3cccnc3)ccc21 [CBK268432C] | 99.1
65 | Cc1cc(C)cc(NC(=O)C2CC(=O)N=C(NCc3ccccc3)N2)c1 (stereo not drawn) [CBK269054] | 87.1
66 | O=S(=O)(Nc1ccccn1)N1CCCCC1 [CBK269490] | 92.3
67 | OCc1nnc2c3ccccc3c(-c3ccccc3)nn12 [CBK269927] | 94.2
68 | Nc1ncc(-c2cccc3ccccc23)nc1NC1CCCCC1 [CBK063588] | 94
69 | CC(=O)c1sc2nc(C)cc(C)c2c1N [CBK131882] | 90.5

Row | Structure (SMILES) | viability at 28.5 h, 10 µM [%]
70 | c1cn2cnnc2c(N2CCc3sccc3C2)n1 [CBK305180] | 96.6
71 | O=C(Oc1ccc(-n2ccnc2)cc1)c1ccc(-c2ccccc2)cc1 [CBK095145] | 93.3
72 | COc1ccccc1-c1nnc(SCC(=O)O)n1-c1ccccc1 [CBK116149] | 89.5
73 | COc1ccc(C2Sc3ccccc3N(CCN(C)C)C(=O)C2OC(C)=O)cc1 (stereo not drawn) [CBK010647] | 98
74 | O=C(CN(c1ccc(I)cc1)S(=O)(=O)c1ccccc1)NCC1CCCO1 (stereo not drawn) [CBK266278] | 101
75 | C/C(=N\NC(=N)SC1CC(=O)N(c2ccc(C(=O)O)cc2)C1=O)c1cccs1 (stereo not drawn) [CBK262471] | 103
76 | Cn1c2c(c(=O)n(C)c1=O)CN(CCN1CCNCC1)CN2 [CBK265218] | 104
77 | Nc1nnc(Sc2nc3cc(Cl)c(Cl)cc3nc2N2CCCC2)s1 [CBK115267] | 98.9
78 | Cc1c(Cl)c([N+](=O)[O-])nn1CC(=O)N1CCN(Cc2ccccc2)CC1 [CBK261720] | 89.8
79 | COc1ccc(C(=O)Nc2nnc(-c3ccccc3OC)o2)cc1OC [CBK287589] | 86.3
80 | COCCN(C(=O)c1nc2cccnc2s1)C1CCS(=O)(=O)C1 (stereo not drawn) [CBK304091] | 97
81 | Cc1ccc2c(c1)C1(CC(=O)N(CC(=O)O)C1=O)C(=O)N2C (stereo not drawn) [CBK076104] | 96.8
82 | OCCCN1CCC(Oc2cncc(OCCN3CCOCC3)n2)C1 (stereo not drawn) [CBK084494] | 95.9
83 | OCCNc1nc(Nc2ccc(Cl)cc2)nc(N2CCCCC2)n1 [CBK266638] | 97.3
84 | O=[N+]([O-])c1cc2c(cc1C1NN=C(c3ccccc3)S1)OCO2 (stereo not drawn) [CBK262540] | 112
85 | CCC(C)CS(=O)(=O)c1nc(C)c(C)n1CC1CCCO1 (stereo not drawn) [CBK305107] | 114
86 | CC[C@H]1CN(C(=O)c2cccnc2)CC[C@H]1CC(=O)NCc1cccs1 [CBK288773] | 89.7
87 | O=C(CN1CCC[C@@H]1CN1CCCC1)Nc1ncccn1 [CBK149107] | 103
88 | O=C(NC1CC1)c1ccsc1NC(=O)C1C2C=CC(C2)C1C(=O)O (stereo not drawn) [CBK270322] | 98.7
89 | O=C(O)c1cc(C(=O)O)cc(N2C(=O)c3ccc(S(=O)(=O)c4ccc5c(c4)C(=O)N(c4cc(C(=O)O)cc(C(=O)O)c4)C5=O)cc3C2=O)c1 [CBK261336] | 100
90 | Cc1ccc(S(=O)(=O)Cc2ccc(C(=O)N3CCN(Cc4ccccc4)CC3)cc2)cc1 [CBK269588] | 86.1
